Assay results: patent US10227376B2, “Radiolabeled cationic steroid antimicrobials and diagnostic methods” (BRIGHAM YOUNG UNIVERSITY, priority 2014, dated 2019)

Assay: Stability of labeled compounds in human serum
Type: in vitro ADME
Conditions: 64Cu labeled compound, four hours, 37 degrees C., 500 rpm incubation
Procedure: Stability of the labeled CSA-150 and CSA-151 compounds of Example 1 was measured. The labeled compounds were placed in human serum for four hours at 37 degrees C. at 500 rpm incubation.

In the case of `CCCCCCCCN(CCCC(C)[C@H]1CC[C@H]2[C@@H]3[C@H](OCCCNC(C)=O)C[C@@H]4C[C@H](OCCCNC(C)=O)CC[C@]4(C)[C@H]3C[C@H](OCCCNC(C)=O)[C@]12C)C(=O)NCCOCCOCCOCCOCCNC(=O)CN1CCN(CC(=O)O)CCN(CC(=O)O)CC1` (stereo partly shown) (64Cu complex, metal not drawn) [CSA-151], the “Stability of the labeled compound (% stable)” value is reported as 100%.
